The experiment deals with human APJ receptor (Homo sapiens (Human), UniProt P35414). Put plainly: biochemical. The experiment is classed as biochemical. Conditions: read-out: Activity hAPJ SPA EC50 IP. The essentials:
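Agonist-stimulated [35S]GTPγS (0.2 nM) binding was read by SPA after 90 min at room temperature. Buffer: 20 mM HEPES pH 7.5 with 5 mM MgCl2, 200 mM NaCl, 3 μM GDP, 0.1% BSA; membranes were from a stable human APJ CHO line. EC50 values are averages of independent runs, fitted by non-linear regression.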

Sequence of human APJ receptor (P35414 whole entry): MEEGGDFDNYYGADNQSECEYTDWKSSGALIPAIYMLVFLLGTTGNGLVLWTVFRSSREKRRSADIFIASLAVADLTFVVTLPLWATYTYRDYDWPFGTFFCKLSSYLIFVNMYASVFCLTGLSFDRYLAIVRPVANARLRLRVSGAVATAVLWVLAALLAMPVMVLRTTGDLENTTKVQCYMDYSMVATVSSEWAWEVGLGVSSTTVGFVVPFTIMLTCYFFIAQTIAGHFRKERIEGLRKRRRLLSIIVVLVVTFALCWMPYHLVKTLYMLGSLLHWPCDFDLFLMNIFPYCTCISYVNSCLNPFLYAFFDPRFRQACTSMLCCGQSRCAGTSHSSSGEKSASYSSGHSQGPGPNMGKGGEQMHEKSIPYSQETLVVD

As usually defined, the EC50 is the concentration that produces a half-maximal response. With `COc1cccc(OC)c1-n1c(NS(=O)(=O)[C@@H](C)[C@@H](C)n2cc(C)cn2)nnc1-c1cncc(C)c1` (single isomer, unassigned) [Example 652.0], the EC50 came to 0.43 nM.

For `CCOc1cccc(OC)c1-n1c(NS(=O)(=O)[C@@H](C)[C@H](OC)c2ncc(C)cn2)nnc1-c1cccc(OC)n1` (single isomer, unassigned) [Example 664.0, (1R,2S,P)—N-(4-(2-ethoxy-6-methoxyphenyl)-5-(6-methoxy-2-pyridinyl)-4H-1,2,4-triazol-3-yl)-1-methoxy-1-(5-methyl-2-pyrimidinyl)-2-propanesulfonamide or (1R,2S,M)-N-(4-(2-ethoxy-6-methoxyphenyl)-5-(6-methoxy-2-pyridinyl)-4H-1,2,4-triazol-3-yl)-1-methoxy-1-(5-methyl-2-pyrimidinyl)-2-propanesulfonamide], the EC50 is 0.31 nM.

Take `COc1cnc([C@H](O)[C@@H](C)S(=O)(=O)Nc2nnc(-c3cccnc3)n2-c2c(OC)cccc2OC)cn1` (single isomer, unassigned) [Example 706.0, (1S,2R)-N-(4-(2,6-dimethoxyphenyl)-5-(3-pyridinyl)-4H-1,2,4-triazol-3-yl)-1-hydroxy-1-(5-methoxy-2-pyrazinyl)-2-propanesulfonamide or (1R,2S)-N-(4-(2,6-dimethoxyphenyl)-5-(3-pyridinyl)-4H-1,2,4-triazol-3-yl)-1-hydroxy-1-(5-methoxy-2-pyrazinyl)-2-propanesulfonamide]: the EC50 came out at 0.34 nM.

As for `COc1ccnc(OC)c1-n1c(NS(=O)(=O)[C@@H](C)[C@H](OC)c2ccc(Cl)cn2)nnc1-c1cccnc1` (single isomer, unassigned) [Example 712.0], the half-maximal effective concentration (EC50) turned out to be 0.9 nM.

Consider `COc1cccc(OC)c1-n1c(NS(=O)(=O)[C@@H](C)[C@H](OC)C2CCC2)nnc1-c1cncc(C)c1` (single isomer, unassigned) [Example 719.0], for which the EC50 worked out at 44 nM.

Regarding `COc1cccc(-c2nnc(NS(=O)(=O)[C@@H](C)[C@@H](O)C3CC(F)(F)C3)n2-c2c(OC)cccc2OC)n1` (single isomer, unassigned) [Example 720.0], the EC50 was found to be 35 nM.

On to `COc1cccc(-c2nnc(NS(=O)(=O)[C@@H](C)[C@@H](O)C3CC(F)(F)C3)n2-c2c(OC)cccc2OC)n1` (single isomer, unassigned) [Example 722.0], for which the EC50 stood at 1.7 nM.

Take `COc1cccc(-c2nnc(NS(=O)(=O)[C@@H](C)[C@@H](O)C3CC(F)(F)C3)n2-c2c(OC)cccc2OC)n1` (single isomer, unassigned) [Example 723.0]: the EC50 came to 2.5 nM.

Regarding `COc1cccc(OC)c1-n1c(NS(=O)(=O)[C@@H](C)[C@H](OC)C2CC(C)(C)C2)nnc1-c1cncc(C)c1` (single isomer, unassigned) [Example 724.0], the EC50 was 220 nM.

Take `COc1cccc(OC)c1-n1c(NS(=O)(=O)[C@@H](C)[C@H](OC)C2CC(C)(C)C2)nnc1-c1cncc(C)c1` (single isomer, unassigned) [Example 725.0]: the EC50 was 36 nM.

As to `COc1cccc(OC)c1-n1c(NS(=O)(=O)[C@@H](C)[C@H](OC)C2CC(C)(C)C2)nnc1-c1cncc(C)c1` (single isomer, unassigned) [Example 726.0], the concentration giving a half-maximal response (EC50) turned out to be 7.5 nM.

Turning to `COc1cccc(OC)c1-n1c(NS(=O)(=O)[C@@H](C)[C@H](OC)C2CC(C)(C)C2)nnc1-c1cncc(C)c1` (single isomer, unassigned) [Example 727.0], the EC50 was 200 nM.

Take `COc1cccc(OC)c1-n1c(NS(=O)(=O)C[C@H](O)c2ncc(C)cn2)nnc1-c1cncc(C)c1` (single isomer, unassigned) [Example 729.0, (R)—N-(4-(2,6-dimethoxyphenyl)-5-(5-methylpyridin-3-yl)-4H-1,2,4-triazol-3-yl)-2-hydroxy-2-(5-methylpyrimidin-2-yl)ethanesulfonamide or (S)—N-(4-(2,6-dimethoxyphenyl)-5-(5-methylpyridin-3-yl)-4H-1,2,4-triazol-3-yl)-2-hydroxy-2-(5-methylpyrimidin-2-yl)ethanesulfonamide]: the concentration for a half-maximal effect (EC50) came to 1.5 nM.

On to `COc1cccc(OC)c1-n1c(NS(=O)(=O)[C@H](C)[C@@H](O)c2cn3ccccc3n2)nnc1-c1cccnc1` (single isomer, unassigned) [Example 735.0, (1S,2R)—N-(4-(2,6-dimethoxyphenyl)-5-(pyridin-3-yl)-4H-1,2,4-triazol-3-yl)-1-hydroxy-1-(imidazo[1,2-a]pyridin-2-yl)propane-2-sulfonamide or (1R,2S)—N-(4-(2,6-dimethoxyphenyl)-5-(pyridin-3-yl)-4H-1,2,4-triazol-3-yl)-1-hydroxy-1-(imidazo[1,2-a]pyridin-2-yl)propane-2-sulfonamide], for which the EC50 came out at 0.48 nM.

Turning to `COc1cccc(OC)c1-n1c(NS(=O)(=O)[C@H](C)[C@@H](O)c2cn3ccccc3n2)nnc1-c1cccnc1` (single isomer, unassigned) [Example 736.0, (1S,2R)—N-(4-(2,6-dimethoxyphenyl)-5-(pyridin-3-yl)-4H-1,2,4-triazol-3-yl)-1-hydroxy-1-(imidazo[1,2-a]pyridin-2-yl)propane-2-sulfonamide or (1R,2S)—N-(4-(2,6-dimethoxyphenyl)-5-(pyridin-3-yl)-4H-1,2,4-triazol-3-yl)-1-hydroxy-1-(imidazo[1,2-a]pyridin-2-yl)propane-2-sulfonamide], the EC50 was determined as 19 nM.

For `COc1cccc(-c2nnc(NS(=O)(=O)[C@@H](C)[C@H](OC)c3ncc(C)cn3)n2-c2c(O)ncnc2OC)n1` (single isomer, unassigned) [Example 739.0, (1R,2S,M)-N-(4-(4-hydroxy-6-methoxypyrimidin-5-yl)-5-(6-methoxypyridin-2-yl)-4H-1,2,4-triazol-3-yl)-1-methoxy-1-(5-methylpyrimidin-2-yl)propane-2-sulfonamide or (1R,2S,P)-N-(4-(4-hydroxy-6-methoxypyrimidin-5-yl)-5-(6-methoxypyridin-2-yl)-4H-1,2,4-triazol-3-yl)-1-methoxy-1-(5-methylpyrimidin-2-yl)propane-2-sulfonamide], the EC50 is 1.5 nM.

For `COc1cccc(-c2nnc(NS(=O)(=O)[C@@H](C)[C@H](OC)c3ncc(C)cn3)n2-c2c(O)ncnc2OC)n1` (single isomer, unassigned) [Example 740.0, (1R,2S,M)-N-(4-(4-hydroxy-6-methoxypyrimidin-5-yl)-5-(6-methoxypyridin-2-yl)-4H-1,2,4-triazol-3-yl)-1-methoxy-1-(5-methylpyrimidin-2-yl)propane-2-sulfonamide or (1R,2S,P)-N-(4-(4-hydroxy-6-methoxypyrimidin-5-yl)-5-(6-methoxypyridin-2-yl)-4H-1,2,4-triazol-3-yl)-1-methoxy-1-(5-methylpyrimidin-2-yl)propane-2-sulfonamide], the half-maximal effective concentration (EC50) came out at 56 nM.

Consider `COc1cnc([C@@H](OC(C)C)[C@@H](C)S(=O)(=O)Nc2nnc(-c3cncc(C)c3)n2-c2c(OC)cccc2OC)cn1` (single isomer, unassigned) [Example 742.0, (1R,2R)-N-(4-(2,6-dimethoxyphenyl)-5-(5-methylpyridin-3-yl)-4H-1,2,4-triazol-3-yl)-1-isopropoxy-1-(5-methoxypyrazin-2-yl)propane-2-sulfonamide or (1S,2S)-N-(4-(2,6-dimethoxyphenyl)-5-(5-methylpyridin-3-yl)-4H-1,2,4-triazol-3-yl)-1-isopropoxy-1-(5-methoxypyrazin-2-yl)propane-2-sulfonamide], for which the EC50 is 35 nM.

In the case of `COc1cccc(OC)c1-n1c(NS(=O)(=O)[C@H](C)[C@H](OC(C)C)c2ccc(Cl)cn2)nnc1-c1cncc(C)c1` (single isomer, unassigned) [Example 744.0, (1R,2R)-1-(5-chloropyridin-2-yl)-N-(4-(2,6-dimethoxyphenyl)-5-(5-methylpyridin-3-yl)-4H-1,2,4-triazol-3-yl)-1-isopropoxypropane-2-sulfonamide or (1S,2S)-1-(5-chloropyridin-2-yl)-N-(4-(2,6-dimethoxyphenyl)-5-(5-methylpyridin-3-yl)-4H-1,2,4-triazol-3-yl)-1-isopropoxypropane-2-sulfonamide], the concentration for a half-maximal effect (EC50) was determined as 26 nM.

Take `COc1cccc(OC)c1-n1c(NS(=O)(=O)[C@H](C)[C@H](OC(C)C)c2ccc(Cl)cn2)nnc1-c1cncc(C)c1` (single isomer, unassigned) [Example 745.0, (1R,2R)-1-(5-chloropyridin-2-yl)-N-(4-(2,6-dimethoxyphenyl)-5-(5-methylpyridin-3-yl)-4H-1,2,4-triazol-3-yl)-1-isopropoxypropane-2-sulfonamide or (1S,2S)-1-(5-chloropyridin-2-yl)-N-(4-(2,6-dimethoxyphenyl)-5-(5-methylpyridin-3-yl)-4H-1,2,4-triazol-3-yl)-1-isopropoxypropane-2-sulfonamide]: the concentration giving a half-maximal response (EC50) was determined as 0.4 nM.

In the case of `COc1cccc(OC)c1-n1c(NS(=O)(=O)[C@H](C)[C@H](OC(C)C)c2cnc(C)cn2)nnc1-c1cncc(C)c1` (single isomer, unassigned) [Example 746.0, (1R,2R)-N-(4-(2,6-dimethoxyphenyl)-5-(5-methylpyridin-3-yl)-4H-1,2,4-triazol-3-yl)-1-isopropoxy-1-(5-methylpyrazin-2-yl)propane-2-sulfonamide or (1S,2S)-N-(4-(2,6-dimethoxyphenyl)-5-(5-methylpyridin-3-yl)-4H-1,2,4-triazol-3-yl)-1-isopropoxy-1-(5-methylpyrazin-2-yl)propane-2-sulfonamide], the concentration for a half-maximal effect (EC50) came out at 80 nM.

For the molecule `COc1cccc(OC)c1-n1c(NS(=O)(=O)[C@H](C)[C@H](OC(C)C)c2cnc(C)cn2)nnc1-c1cncc(C)c1` (single isomer, unassigned) [Example 747.0, (1R,2R)-N-(4-(2,6-dimethoxyphenyl)-5-(5-methylpyridin-3-yl)-4H-1,2,4-triazol-3-yl)-1-isopropoxy-1-(5-methylpyrazin-2-yl)propane-2-sulfonamide or (1S,2S)-N-(4-(2,6-dimethoxyphenyl)-5-(5-methylpyridin-3-yl)-4H-1,2,4-triazol-3-yl)-1-isopropoxy-1-(5-methylpyrazin-2-yl)propane-2-sulfonamide], the EC50 worked out at 7.6 nM.

The values above are taken from US10058550B2, “Methods of treating heart failure” (priority 2015, dated 2018).
